Measurements from US6579894B2, “Prolines as antimicrobial agents” (Merck & Co., Inc., priority 1999, dated 2003).
Converted amounts (≈) assume the structure as drawn.

Legend:
S. aureus = assay: Whole cell antimicrobial screen, MIC (S. aureus); assay type: cell-based; settings: 2-fold dilutions, overnight incubation; for MIC: Staphylococcus aureus, read-out: MIC (μg/mL) Sa
Description: (§1) Compounds were tested for antimicrobial activity against a panel of organisms according to standard procedures described by the National Committee for Clinical Laboratory Standards (NCCLS document M7-A3, Vol. 13, No. 25, 1993/NCCLS document M27-P, Vol. 12, No. 25, 1992). Compounds were dissolved in 100% DMSO and were diluted to the final reaction concentration (0.1 μg/ml-500 μg/ml) in microbial growth media. In all cases the final concentration of DMSO incubated with cells is less than or equal to 1%. For minimum inhibitory concentration (MIC) calculations, 2-fold dilutions of compounds were added to wells of a microtiter plate containing 1×10^5 bacteria or fungal cells in a final volume of 200 lambda of an appropriate media (Mueller-Hinton Broth; Haemophilus Test Media; Mueller-Hinton Broth+5% Sheep Blood; or […]). Plates were incubated overnight at an appropriate temperature (30° C.-37° C.) and optical densities (measure of cell growth) were measured using a commercial plate reader. The MIC value is defined as the lowest compound concentration inhibiting growth of the test organism.

[1] = system: aminoacyl-tRNA synthetases (aaRS); assay: aaRS charging and trichloroacetic acid precipitation assay, IC50 (S. aureus); assay type: biochemical; settings: aaRS of S. aureus; values are range classes
Description: (§2) IC50 determinations for the aminoacyl-tRNA synthetases (aaRS) isolated from pathogen or HeLa cells were carried out using a modification of the aaRS charging and trichloroacetic acid precipitation assay described previously (see examples: D. Kern et. al., Biochemie, 61, 1257-1272 (1979) and J. Gilbart et. al. Antimicrobial Agents and Chemotherapy, 37(1), 32-38 (1993)). The aaRS enzymes were prepared via standard cloning and expression methods and partially purified or partially purified from pathogen and HeLa cell extracts. The activity of each aaRS enzyme was standardized as trichloroacetic acid precipitable counts (cpm) obtained at 10 minutes reaction time at Km concentrations of substrates. For practical purposes, the minimal acceptable value is approximately 2000 cpm per 10 minute reaction.
(§3) Preincubations for IC50 determinations were initiated by incubating partially purified aaRS extracts in 50 mM HEPES (pH 7.5), 0.1 mM EDTA, 0.05 mg/ml bovine serum albumin, 10 mM dithiothreitol and 2.5% dimethyl sulfoxide with and without test compound (e.g. compound of the invention (preferably a compound of Formula I)) in a final volume of 20 microliters in a microtiter plate for 20 minutes at 25 C. Test compounds were typically present as serial dilutions in concentration ranges of 0.35 nM to 35 μM. Test compound solutions were prepared by dissolving test compound in 100% dimethyl sulfoxide and diluting to the final concentration with 50 mM HEPES, pH 7.5. IC50 determinations were typically performed in duplicate with each experiment containing 4-8 concentrations of inhibitor along with two no inhibitor controls.
(§4) IC50 incubations were initiated by supplementing the preincubation mixture to a final assay concentration of 10 mM MgCl2, 30 mM KCl, 10 mM KF, 50 mM HEPES (pH 7.5), 20 μM-500 mM ATP, 2-20 μM [^3H] amino acid, and 90-180 μM crude tRNA in a final volume of 35 microliters. The reaction was incubated at 25° C. for 5-20 minutes. At specified time points a 15 microliter aliquot was removed and added to a well of a Millipore filtration plate (Multiscreen-FB, MAFB NOB 10) containing 100 microliters of cold 5% (wt/vol) trichloroacetic acid. Trichloroacetic acid precipitable material was collected by filtration on Millipore Multiscreen filtration station, washed twice with cold 5% trichloroacetic acid, twice with water, and dried. Plates were typically allowed to air dry for several hours or they were baked at 50° C. in a vacuum oven for 30 minutes. The radioactivity on the dried plates was quantitated by the addition of Packard Microscint-20 to the wells and counting with a Packard TopCount scintillation counter.
(§5) Inhibitor activity was typically reported as a percentage of the control aaRS activity. The IC50 value was determined by plotting percent activity versus compound concentration in the assay and identifying the concentration at which 50% of the activity was remaining.

[2] = system: aminoacyl-tRNA synthetases (aaRS); assay: aaRS charging and trichloroacetic acid precipitation assay, IC50 (E. faecalis); assay type: biochemical; settings: aaRS of E. faecalis; values are range classes
Description: as §2, §3, §4, §5

E. faecium = assay: Whole cell antimicrobial screen, MIC (E. faecium); assay type: cell-based; settings: 2-fold dilutions, overnight incubation; for MIC: Enterococcus faecium, read-out: MIC (μg/mL) Efm
Description: as §1

E. faecalis = assay: Whole cell antimicrobial screen, MIC (Efs); assay type: cell-based; settings: 2-fold dilutions, overnight incubation; for MIC: Enterococcus faecalis, read-out: MIC (μg/mL) Efs
Description: as §1

Row | Structure (SMILES) | MIC (μg/mL) Sa (S. aureus) [µg/mL] | IC50 [1] [nM] | IC50 [2] [nM] | MIC (μg/mL) Efm (E. faecium) [µg/mL] | MIC (μg/mL) Efs (E. faecalis) [µg/mL] | MIC (S. aureus) [µg/mL] | MIC (E. faecalis) [µg/mL] | MIC (E. faecium) [µg/mL]
1 | O=C(NCc1nc2ccccc2[nH]1)C1CC(c2nn[nH]n2)CN1Cc1ccc(Cl)cc1Cl (mixture of isomers) [130,706] | >100 | < 500 | < 500 | >100 | >100 |  |  | 
2 | O=C(NCc1nc2ccccc2[nH]1)[C@@H]1CCCN1Cc1ccc(Cl)cc1Cl [126,881] |  | < 500 | 1000 to 10000 |  |  | 100 (≈ 248 µM) | < 100 | 
3 | O=C(NCc1nc2ccccc2[nH]1)[C@@H]1CC(O)CN1Cc1ccc(Cl)cc1Cl (stereo partly shown) [127,006] |  | < 500 | 1000 to 10000 |  |  | < 100 | < 100 | < 100
4 | N#CC1CC(C(=O)NCc2nc3ccccc3[nH]2)N(Cc2ccc(Cl)cc2Cl)C1 (stereo not shown) [127,566] |  | 1000 to 10000 | 1000 to 10000 |  |  | > 100 | > 100 | > 100
5 | O=C(NCc1nc2ccccc2[nH]1)C1CC(OCc2ccccc2)CN1Cc1ccc(Cl)cc1Cl (stereo not shown) [127,889] |  | 1000 to 10000 | 1000 to 10000 |  |  | > 100 | > 100 | > 100
6 | O=C1C[C@@H](C(=O)NCc2nc3ccccc3[nH]2)N(Cc2ccc(Cl)cc2Cl)C1 [130,692] |  | 1000 to 10000 | 1000 to 10000 |  |  | > 100 | > 100 | > 100
7 | O=C(NCc1nc2ccccc2[nH]1)[C@@H]1CCCCN1Cc1ccc(Cl)cc1Cl [130,693] | <100 | 1000 to 10000 | 1000 to 10000 | 100 (≈ 240 µM) | >100 |  |  | 
8 | O=C(NCc1nc2ccccc2[nH]1)C1CC(=NO)CN1Cc1ccc(Cl)cc1Cl (stereo not shown) [130,707] |  | 1000 to 10000 | 1000 to 10000 |  |  | > 100 | > 100 | > 100
9 | CON=C1CC(C(=O)NCc2nc3ccccc3[nH]2)N(Cc2ccc(Cl)cc2Cl)C1 (stereo not shown) [130,708] |  | 1000 to 10000 | 1000 to 10000 |  |  | > 100 | > 100 | > 100
10 | O=C(O)CON=C1CC(C(=O)NCc2nc3ccccc3[nH]2)N(Cc2ccc(Cl)cc2Cl)C1 (stereo not shown) [130,709] |  | 1000 to 10000 | 1000 to 10000 |  |  | > 100 | > 100 | > 100
11 | O=C(NCc1nc2ccccc2[nH]1)[C@H]1CCCN1Cc1ccc(Cl)cc1Cl [130,724] | <100 | 1000 to 10000 | 1000 to 10000 | >100 | >100 |  |  | 
12 | O=C(NCc1nc2ccccc2[nH]1)C1CC(O)CN1Cc1ccc(Cl)cc1Cl (stereo not shown) [130,725] | >100 | 10000 to 60000 | 10000 to 60000 | >100 | >100 |  |  | 
13 | O=C(NCc1nc2ccccc2[nH]1)[C@@H]1C[C@H](O)CN1Cc1ccc(Cl)cc1Cl [130,900] | 100 (≈ 238 µM) | < 500 | < 500 | 100 (≈ 238 µM) | <100 |  |  | 
14 | O=C(NCc1nc2ccccc2[nH]1)[C@@H]1C[C@@H](O)CN1Cc1ccc(Cl)cc1Cl [130,901] | <100 | < 500 | 501 to 1000 | <100 | <100 |  |  | 
15 | Clc1ccc(CN2CCC[C@H]2COCc2nc3ccccc3[nH]2)c(Cl)c1 [130,928] | 100 (≈ 256 µM) | 1000 to 10000 | 1000 to 10000 | 100 (≈ 256 µM) | >100 |  |  | 
16 | O=C(O)CC1CC(C(=O)NCc2nc3ccccc3[nH]2)N(Cc2ccc(Cl)cc2Cl)C1 (stereo not shown) [130,973] |  | < 500 | < 500 |  |  | > 100 | > 100 | > 100
